Patent US9096863B2, “Biosynthetic engineering of glucosinolates” (University of Denmark, priority 2008, dated 2015)
Several values for one entry are separate records, joined by “and”; a condition that tells them apart may be missing. Identical values can stand only once.

Tests used:
GGP1 [1] = biological target: T1, GGP1 (Arabidopsis thaliana, UniProt Q9M0A7); assay: In-vitro assay for GGP1 activity with the standard substrate GPNA (absorbance at 405 nm); format: biochemical; set-up: His-tag (pRSET-A N-terminal leader) (N); made in house; host or cells: E. coli; settings: 1 mM GPNA, crude E. coli extract, linear part of the GGP1 curve
T1 sequence (Q9M0A7 1-250): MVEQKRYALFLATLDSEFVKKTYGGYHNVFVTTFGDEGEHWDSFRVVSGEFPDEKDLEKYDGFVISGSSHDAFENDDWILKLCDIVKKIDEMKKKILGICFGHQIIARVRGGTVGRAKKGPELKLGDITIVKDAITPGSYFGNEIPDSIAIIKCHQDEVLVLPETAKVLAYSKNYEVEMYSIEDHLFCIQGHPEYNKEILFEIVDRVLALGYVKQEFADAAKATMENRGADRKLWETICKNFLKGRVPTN
Method: In vitro assays were assembled with […] of crude protein extract from a cleared E. coli lysate (before column purification) in 0.1 M Tris-HCl at pH 7.5 to a total volume of 150 μl. Assay is initiated by addition of GPNA to a final concentration of 1 mM and enzyme activity is measured by absorbance at 405 nm. Absorbance was measured with 5 minute intervals from time 0-20 minutes using a spectrophotometer.

GGP1 [2] = biological target: T1, GGP1; settings: GS-X as substrate, 10 to 90 μM; purified recombinant His-tagged GGP1; ± SE; Michaelis-Menten fit
Method: Recombinant GGP1 was expressed in E. coli from the vector pRSET-A (Invitrogen) as an N-terminal His-tag fusion. Cells were grown in LB medium and induced by adding 0.02 mM IPTG at an OD600 of 0.1-0.4. After 16 hours of incubation at 18° C. and 220 rpm, cells were harvested and resuspended in binding buffer [100 mM Tris-HCl, 500 mM NaCl, 50 mM imidazole, pH 7.5] supplemented with 1 mM PMSF and 1 mM MgCl. Cell lysis was achieved by lysozyme treatment and subsequent sonication. Cell debris was spun down for 20 min at 20 000 g, and the supernatant was run through a Ni-NTA column. The column was washed with binding buffer, and bound protein was released with elution buffer [100 mM Tris-HCl, 500 mM NaCl, 500 mM imidazole, pH 7.5]. As a control, a parallel purification was performed for an empty pRSET-A vector.
200 ng of purified GGP1 or 200 ng of control protein were assayed in a final volume of 100 μL containing 20 mM Tris-HCl pH 7.5 and 20 μM GS-X. The reactions were stopped after 10 min upon addition of 300 μL methanol. After an overnight incubation at −20° C., the mixture was spun down for 20 min at 5 000 g and 200 μL of the supernatant were evaporated and redisolved in 50 μL of 75% methanol. Analysis was performed using the LC-MS/MS method previously described. For the determination of Km, similar assays were performed using a range of GS-X concentrations spanning from 10 to 90 μM. […]

N[C@@H](CCC(=O)Nc1ccc([N+](=O)[O-])cc1)C(=O)O [GPNA, gamma-glutamyl-p-nitroanilide]
activity of crude extract containing recombinant GGP1 versus control extract (cleavage to p-nitroanilide) (GGP1 [1]): around 10 times

NC(CCC(=O)NC(CSC(Cc1ccccc1)=NO)C(=O)NCC(=O)O)C(=O)O [GS-X, S-(phenylacetohydroxymoyl)-L-glutathione]
Km (GGP1 [2]): 56.6 µM and 57 µM
